Assay results from BindingDB's records for doi:10.1021/jm0510934 (Abbott Laboratories, 2006).

Biological target: Growth hormone secretagogue receptor type 1 (Homo sapiens, UniProt Q92847)
Test: Receptor Binding Studies and GHS-R Ca2+ Flux Assay
Conditions: not given
Procedure: Specific binding was determined by incubation of membranes from GHS-R1a transfected CHO-K cells with 125I-His9-ghrelin in the presence of increasing concentrations of compounds to obtain IC50. Fluorescence emissions from 96 wells were measured simultaneously at excitation and emission wavelength of 488 and 520 nm, respectively. During this time, agonist responses in the absence of ghrelin, or the antagonist effects of compounds on ghrelin-stimulated calcium flux were recorded. Sigmoidal curves were fitted and EC50/IC50 values were determined by GraphPad Prism software.

Growth hormone secretagogue receptor type 1, sequence (Q92847 whole entry): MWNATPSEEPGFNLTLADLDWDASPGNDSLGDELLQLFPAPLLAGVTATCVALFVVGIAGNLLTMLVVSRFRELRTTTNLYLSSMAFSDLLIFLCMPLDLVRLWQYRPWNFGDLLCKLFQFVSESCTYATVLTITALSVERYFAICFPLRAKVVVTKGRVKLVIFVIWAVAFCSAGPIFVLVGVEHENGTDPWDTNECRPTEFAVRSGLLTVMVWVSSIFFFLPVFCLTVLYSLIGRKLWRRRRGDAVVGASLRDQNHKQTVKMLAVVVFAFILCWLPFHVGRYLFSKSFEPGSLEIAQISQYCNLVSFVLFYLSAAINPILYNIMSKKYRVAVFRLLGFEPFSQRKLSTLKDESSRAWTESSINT

Compound | IC50
N#Cc1ccc(COc2ccc(-c3c(N)nc(N)nc3COCc3ccccc3)cc2)cc1 [2,4-diaminopyrimidine derivative, 10b] | 3610 nM
CCc1nc(N)nc(N)c1-c1ccc(NCc2ccc(S(C)(=O)=O)cc2)c(Br)c1 [5-(3-bromo-4-{[(4-methanesulfonylphenyl)methyl]amino}phenyl)-6-ethylpyrimidine-2,4-diamine] | 42 nM
CCc1nc(N)nc(N)c1-c1ccc(NCc2ccc(S(C)(=O)=O)cc2)c(Cl)c1 [5-(3-chloro-4-{[(4-methanesulfonylphenyl)methyl]amino}phenyl)-6-ethylpyrimidine-2,4-diamine] | 11 nM
COc1ccc(CNc2ccc(-c3c(N)nc(N)nc3COCc3ccccc3)cc2)cc1 [6-[(benzyloxy)methyl]-5-(4-{[(4-methoxyphenyl)methyl]amino}phenyl)pyrimidine-2,4-diamine] | 90 nM
Nc1nc(N)c(-c2ccc(CNc3ccc([N+](=O)[O-])cc3)cc2)c(COCc2ccccc2)n1 [6-[(benzyloxy)methyl]-5-(4-{[(4-nitrophenyl)amino]methyl}phenyl)pyrimidine-2,4-diamine] | 16 nM
Nc1nc(N)c(-c2ccc(NCc3ccc(Cl)s3)cc2)c(COCc2ccccc2)n1 [6-[(benzyloxy)methyl]-5-(4-{[(5-chlorothiophen-2-yl)methyl]amino}phenyl)pyrimidine-2,4-diamine] | 320 nM
Nc1nc(N)c(-c2ccc(NCc3ccncc3)cc2)c(COCc2ccccc2)n1 [6-[(benzyloxy)methyl]-5-{4-[(pyridin-4-ylmethyl)amino]phenyl}pyrimidine-2,4-diamine] | 86 nM
CCc1nc(N)nc(N)c1-c1ccc(CNc2ccc(S(C)(=O)=O)cc2)cc1 [6-ethyl-5-(4-{[(4-methanesulfonylphenyl)amino]methyl}phenyl)pyrimidine-2,4-diamine] | 120 nM
CCc1nc(N)nc(N)c1-c1ccc(CNc2ccc([N+](=O)[O-])cc2)cc1 [6-ethyl-5-(4-{[(4-nitrophenyl)amino]methyl}phenyl)pyrimidine-2,4-diamine] | 190 nM

The remaining lines, values ahead:

IC50 | Compound
3350 nM | Nc1nc(N)c(-c2ccc(NCc3ccc(Cl)cc3)cc2)c(CCc2ccccc2)n1 [5-(4-{[(4-chlorophenyl)methyl]amino}phenyl)-6-(2-phenylethyl)pyrimidine-2,4-diamine]
980 nM | Nc1nc(N)c(-c2ccc(NCc3ccccc3)cc2)c(COCc2ccccc2)n1 [5-[4-(benzylamino)phenyl]-6-[(benzyloxy)methyl]pyrimidine-2,4-diamine]
170 nM | Nc1nc(N)c(-c2ccc(NCc3csc(Cl)c3)cc2)c(COCc2ccccc2)n1 [6-[(benzyloxy)methyl]-5-(4-{[(5-chlorothiophen-3-yl)methyl]amino}phenyl)pyrimidine-2,4-diamine]
700 nM | CC(C)(C)CNc1ccc(-c2c(N)nc(N)nc2COCc2ccccc2)cc1 [6-[(benzyloxy)methyl]-5-{4-[(2,2-dimethylpropyl)amino]phenyl}pyrimidine-2,4-diamine]
48 nM | CS(=O)(=O)c1ccc(COc2ccc(-c3c(N)nc(N)nc3COCc3ccccc3)cc2)cc1 [6-[(benzyloxy)methyl]-5-{4-[(4-methanesulfonylphenyl)methoxy]phenyl}pyrimidine-2,4-diamine]
780 nM | Nc1nc(N)c(-c2ccc(NCc3cnc4ccccc4c3)cc2)c(COCc2ccccc2)n1 [6-[(benzyloxy)methyl]-5-{4-[(quinolin-3-ylmethyl)amino]phenyl}pyrimidine-2,4-diamine]
32 nM | CCc1nc(N)nc(N)c1-c1ccc(N(C)Cc2ccc(S(C)(=O)=O)cc2)cc1 [6-ethyl-5-(4-{[(4-methanesulfonylphenyl)methyl](methyl)amino}phenyl)pyrimidine-2,4-diamine]

Same assay, conditions: pH 7.4; 22 °C

Compound | IC50
CS(=O)(=O)c1ccc(CNc2ccc(-c3c(N)nc(N)nc3COCc3ccccc3)cc2)cc1 | 7.2 nM
CC(=O)c1ccc(CNc2ccc(-c3c(N)nc(N)nc3COCc3ccccc3)cc2)cc1 [1-(4-{[(4-{2,4-diamino-6-[(benzyloxy)methyl]pyrimidin-5-yl}phenyl)amino]methyl}phenyl)ethan-1-one] | 10 nM
CCc1nc(N)nc(N)c1-c1ccc(NCc2ccc(C(C)=O)cc2)cc1 [1-[4-({[4-(2,4-diamino-6-ethylpyrimidin-5-yl)phenyl]amino}methyl)phenyl]ethan-1-one] | 110 nM
CCc1nc(N)nc(N)c1-c1ccc(NCc2ccnc(Cl)c2)cc1 [5-(4-{[(2-chloropyridin-4-yl)methyl]amino}phenyl)-6-ethylpyrimidine-2,4-diamine] | 220 nM
CCc1nc(N)nc(N)c1-c1ccc(NCc2cc(F)c(S(C)(=O)=O)c(F)c2)cc1 [5-(4-{[(3,5-difluoro-4-methanesulfonylphenyl)methyl]amino}phenyl)-6-ethylpyrimidine-2,4-diamine] | 45 nM
CCc1nc(N)nc(N)c1-c1ccc(NCc2csc(Cl)c2)cc1 [5-(4-{[(5-chlorothiophen-3-yl)methyl]amino}phenyl)-6-ethylpyrimidine-2,4-diamine] | 790 nM
Nc1nc(N)c(-c2ccc(NCc3ccnc(Cl)c3)cc2)c(COCc2ccccc2)n1 [6-[(benzyloxy)methyl]-5-(4-{[(2-chloropyridin-4-yl)methyl]amino}phenyl)pyrimidine-2,4-diamine] | 3.6 nM
Nc1nc(N)c(-c2ccc(NCc3ccc(Cl)cc3)cc2)c(COCc2ccccc2)n1 [6-[(benzyloxy)methyl]-5-(4-{[(4-chlorophenyl)methyl]amino}phenyl)pyrimidine-2,4-diamine] | 180 nM
Nc1nc(N)c(-c2ccc(NCc3ccc([N+](=O)[O-])cc3)cc2)c(COCc2ccccc2)n1 [6-[(benzyloxy)methyl]-5-(4-{[(4-nitrophenyl)methyl]amino}phenyl)pyrimidine-2,4-diamine] | 5.8 nM
Nc1nc(N)c(-c2ccc(NCc3ccc(C(F)(F)F)cc3)cc2)c(COCc2ccccc2)n1 [6-[(benzyloxy)methyl]-5-[4-({[4-(trifluoromethyl)phenyl]methyl}amino)phenyl]pyrimidine-2,4-diamine] | 97 nM
CCc1nc(N)nc(N)c1-c1ccc(NCc2ccc(S(C)(=O)=O)cc2)cc1 [6-ethyl-5-(4-{[(4-methanesulfonylphenyl)methyl]amino}phenyl)pyrimidine-2,4-diamine] | 12 nM
CCc1nc(N)nc(N)c1-c1ccc(NCc2ccc([N+](=O)[O-])cc2)cc1 [6-ethyl-5-(4-{[(4-nitrophenyl)methyl]amino}phenyl)pyrimidine-2,4-diamine] | 23 nM
CCc1nc(N)nc(N)c1-c1ccc(NCc2ccc(S(=O)(=O)C(F)(F)F)cc2)cc1 [6-ethyl-5-[4-({[4-(trifluoromethane)sulfonylphenyl]methyl}amino)phenyl]pyrimidine-2,4-diamine] | 690 nM

Other lines, results leading:

IC50 | Compound
110 nM | CCc1nc(N)nc(N)c1-c1ccc(NCc2ccc(C(C)O)cc2)cc1 (stereo unspecified) [1-[4-({[4-(2,4-diamino-6-ethylpyrimidin-5-yl)phenyl]amino}methyl)phenyl]ethan-1-ol]
780 nM | CCc1nc(N)nc(N)c1-c1ccc(NCc2ccc(C#N)cc2)cc1 [4-({[4-(2,4-diamino-6-ethylpyrimidin-5-yl)phenyl]amino}methyl)benzonitrile]
19 nM | N#Cc1ccc(CNc2ccc(-c3c(N)nc(N)nc3COCc3ccccc3)cc2)cc1 [4-{[(4-{2,4-diamino-6-[(benzyloxy)methyl]pyrimidin-5-yl}phenyl)amino]methyl}benzonitrile]
1380 nM | CCc1nc(N)nc(N)c1-c1ccc(NCc2ccc(Cl)cc2)cc1 [5-(4-{[(4-chlorophenyl)methyl]amino}phenyl)-6-ethylpyrimidine-2,4-diamine]
85 nM | Nc1nc(N)c(-c2ccc(NCc3ccc(S(=O)(=O)C(F)(F)F)cc3)cc2)c(COCc2ccccc2)n1 [6-[(benzyloxy)methyl]-5-[4-({[4-(trifluoromethane)sulfonylphenyl]methyl}amino)phenyl]pyrimidine-2,4-diamine]

Same assay, conditions: pH 7.4; 22 °C; read-out: IC50

IC50 | Compound
1 nM | Nc1nc(N)c(-c2ccc(NCc3ccc(S(=O)(=O)C(F)(F)F)cc3)cc2)c(COCc2ccccc2)n1 [6-[(benzyloxy)methyl]-5-[4-({[4-(trifluoromethane)sulfonylphenyl]methyl}amino)phenyl]pyrimidine-2,4-diamine]
21 nM | CCc1nc(N)nc(N)c1-c1ccc(NCc2ccc(S(=O)(=O)C(F)(F)F)cc2)cc1 [6-ethyl-5-[4-({[4-(trifluoromethane)sulfonylphenyl]methyl}amino)phenyl]pyrimidine-2,4-diamine]
